Reference: US9982188B2, “Near-infrared emitters” (MISSOURI STATE UNIVERSITY, priority 2015, dated 2018)
“Also recorded” adds a separate entry of the source.

Key:
[1] = potentiometric pH titration for pKa (ionization constant); format: physicochemical; conditions: isopropyl alcohol (ISA)/water mixture, aqueous pKa, 23° C., Yasuda-Shedlovsky extrapolation to zero ISA
Procedure: Ionization constants for the new cyanoxime compound 1 [H(DECO)] were determined using a Sirius Analytical Instruments automated titration station (Sussex, UK) equipped with a temperature-controlled bath. The titration was performed three times at 23° C. in an isopropyl alcohol (ISA) water mixture as described below. The weighed amount of compound 1 (3.08 mg) was placed into a titration vial. Sixteen milliliters of ISA water was delivered automatically to the vial. The pH of the solution was adjusted to 10 by adding 0.5 M KOH automatically. The titration with 0.5M HCl was performed automatically until a pH value of 2.5 was reached. To perform the second and third titrations, an additional volume of ISA and water (1 mL and 1 mL) was delivered automatically to the titration vial, respectively. The datasets for the three titrations were combined in the RefinementPro program to create a Multiset for pKa calculation. Also, these datasets were combined and extrapolated to a zero ISA concentration.
The aqueous pKa was calculated with a Yasuda-Shedlovsky extrapolation in the RefinementPro software.

[2] = solubility observations in water and organic solvents; format: physicochemical
[3] = related amide-cyanoximes, Ref [1, 2] / [1, 3]; cited from earlier work

| pKa [1] | Structure (SMILES) | solubility in organic solvents ([2]; solvent named in the value) | solubility in water ([2]; water) | pKa (pH titration) [3] |
| --- | --- | --- | --- | --- |
| 5.622 ± 0.005 | CCN(CC)C(=O)/C(C#N)=N/O [compound 1, 2-cyano-2-oximino-N,N′-diethylaminoacetamide] | soluble in most organic solvents except hydrocarbons | not well soluble in water; also recorded: insoluble in water |  |
|  | N#C/C(=N\O)C(N)=O [H(ACO)] |  |  | 5.034 ± 0.002 |
|  | CN(C)C(=O)/C(C#N)=N/O [H(DCO)] |  |  | 5.52 ± 0.03 |
